These results are taken from US5631382A, “Fulgimide compound” (Tokuyama Corporation, priority 1994, dated 1997).

What all share (assay type): physicochemical
The nature of series [1]: Developed color of polymer plate under xenon light (color density, maximum absorption wavelength). Conditions: for Color density: 0.04 parts in polymer plate; for λ max: state of developing color, polymer plate. The text has this: (§1) 0.04 Parts of fulgimide compounds shown in Table 3, 70 parts of tetraethyleneglycol dimethacrylate, 15 parts of triethyleneglycol dimethacrylate, 10 parts of glycidyl methacrylate, 5 parts of 2-hydroethylmethacrylate and 1 part of perbutyl ND as a polymerization catalyst, were sufficiently mixed together until they were completely dissolved. The mixture solution was poured into a mold constituted by a glass plate and a gasket of an ethylene/vinyl acetate copolymer, and its temperature was elevated in an air oven from 35° C. to 90° C. over a period of 20 hours to effect the polymerization. After the polymerization, the polymer was taken out from the glass mold.
(§2) The obtained polymer plate was irradiated with xenon light by using a Xenon Long-Life Fade Meter FAL-25AX-HC (output: 2.5 KW, source of light: xenon long-life arc lamp) manufactured by Suga Shikenki Co., in order to measure a maximum absorption wavelength in a state of developing color. The initial color tone was observed by eyes, and YI of the samples was measured by using a color-difference meter (Model SM-4) manufactured by Suga Shikenki Co. The wear life (T 1/2) was also measured in compliance with JIS L0843 and JIS B7754. T 1/2 is defined to be the time until the color density decreases down to one-half the initial value when the polymer plate is irradiated with light by using the fade meter.
(§3) For the purpose of comparison, the fulgimide compounds represented by the following formulas (A) to (I) were also used to prepare polymer plates to measure their properties in the same procedure as described above. [drawing 113]

Series [2] in a line: Initial color of polymer plate (visual observation, YI by color-difference meter). Particulars: for Initial color, visually observed: before irradiation; for Initial color, YI: color-difference meter SM-4.
Description: as §1, §2, §3

Series [3] in a line: Wear life (T 1/2) of polymer plate in xenon fade meter, JIS L0843 and JIS B7754. Conditions: time until color density decreases to one-half the initial value.
Description: as §1, §2, §3

Turning to `CCN1C(=O)C2=C(C)c3ccsc3C3(C4CC5CC(C4)CC3C5)C2C1=O` (centres unmarked) [A, reference compound], in series [1], the Color density was found to be 0.68 and the λ max was determined as 540 nm. Further, in series [2], the “Initial color, visually observed” value is “yellow” and the “Initial color, YI” value is 10.03. The compound also gave a T1/2 in series [3] of 100 h.

As for `CC1=C2C(=O)N(CC#N)C(=O)C2C2(c3oc(-c4ccccc4)cc31)C1CC3CC(C1)CC2C3` (centres unmarked) [B, reference compound], in series [1], the Color density was 0.75 and the λ max is 550 nm. For the same compound, in series [2], the “Initial color, visually observed” value was “yellow” and the “Initial color, YI” value was found to be 10.65. Moreover, the T1/2 in series [3] was 95 h.

On to `COc1ccc(-c2cc3c(o2)C2(C4CC5CC(C4)CC2C5)C2C(=O)N(CC#N)C(=O)C2=C3C)cc1` (centres unmarked) [C, reference compound], for which, in series [1], the Color density amounted to 0.77 and the λ max turned out to be 560 nm. In series [2], the “Initial color, visually observed” value is reported as “yellow” and the “Initial color, YI” value is reported as 17.56. In addition, in series [3], the T1/2 amounted to 95 h.

As for `N#CN1C(=O)C2=C(C3CC3)c3ccsc3C3(C4CC5CC(C4)CC3C5)C2C1=O` (centres unmarked) [Compound 1, N-Cyano-4-cyclopropyl-6,7-dihydrospirobenzothiophenedicarboxyimide-7,2'-tricyclo[3.3.1.1^3,7]decane], in series [1], the Color density stood at 0.65 and the λ max is 615 nm. For the same compound, in series [2], the “Initial color, visually observed” value is recorded as “colorless” and the “Initial color, YI” value worked out at 1.85. Also, the T1/2 in series [3] turned out to be 400 h.

Consider `CC(=O)N1C(=O)C2=C(C3CC3)c3ccsc3C3(C4CC5CC(C4)CC3C5)C2C1=O` (centres unmarked) [Compound 2, N-Acetyl-4-cyclopropyl-6,7-dihydrospirobenzothiophenedicarboxyimide-7,2'-tricyclo[3.3.1.1^3,7]decane], for which, in series [1], the Color density turned out to be 1.20 and the λ max is recorded as 560 nm. In addition, in series [2], the “Initial color, visually observed” value was “colorless” and the “Initial color, YI” value was found to be 2.01. In series [3], this compound displayed a T1/2 of 140 h.

For `O=C1C2=C(C3CC3)c3ccsc3C3(C4CC5CC(C4)CC3C5)C2C(=O)N1C(=O)c1ccccc1` (centres unmarked) [Compound 3, N-Benzoyl-4-cyclopropyl-6,7-dihydrospirobenzothiophenedicarboxyimide-7,2'-tricyclo[3.3.1.1^3,7]decane], in series [1], the Color density amounted to 0.90 and the λ max came out at 570 nm. In series [2], the “Initial color, visually observed” value is recorded as “colorless” and the “Initial color, YI” value is 3.84. In series [3], this compound yielded a T1/2 of 135 h.

On to `CC(=O)N1C(=O)C2=C(C3CC3)c3cc(C)sc3C3(C4CC5CC(C4)CC3C5)C2C1=O` (centres unmarked) [Compound 4, N-Acetyl-4-cyclopropyl-6,7-dihydro-2-methylspirobenzothiophenedicarboxyimide-7,2'-tricyclo[3.3.1.1^3,7]decane], for which, in series [1], the Color density is reported as 1.43 and the λ max is on record as 562 nm. Besides, in series [2], the “Initial color, visually observed” value is given as “colorless” and the “Initial color, YI” value came to 2.15. In series [3], the T1/2 came to 140 h.

In series [1], `CC1=C2C(=O)N(C#N)C(=O)C2C2(c3oc(-c4ccccc4)cc31)C1CC3CC(C1)CC2C3` (centres unmarked) [Compound 5] displayed a Color density of 1.12 and a λ max of 603 nm. In addition, in series [2], the “Initial color, visually observed” value is reported as “colorless” and the “Initial color, YI” value is 3.96. For the same compound, the T1/2 in series [3] came to 260 h.

Regarding `CC(C)C1=C2C(=O)N(S(C)(=O)=O)C(=O)C2C2(c3c1ccn3C)C1CC3CC2CC(Cl)(C3)C1` (centres unmarked) [Compound 6, 5'-Chloro-6,7-dihydro-N-methyl-N'-methylsulfonyl-4-isopropylspiroindoledicarboxyimide-7,2'-tricyclo[3.3.1.1^3,7]decane], in series [1], the Color density was found to be 0.95 and the λ max is reported as 601 nm. In series [2], the “Initial color, visually observed” value was “pale yellow” and the “Initial color, YI” value amounted to 4.85. The compound also displayed a T1/2 in series [3] of 110 h.

In series [1], `CCC1=C2C(=O)N(C(=O)C(Cl)(Cl)Cl)C(=O)C2C2(c3sc4cc(OC)ccc4c31)C1CC3CC(Cl)(C1)CC2(Cl)C3` (centres unmarked) [Compound 7, 3',5'-Dichloro-3,4-dihydro-1-ethyl-7-methoxy-N-trichloromethylcarbonylspirodibenzo[5,6-b:d]thiophenedicarboxyimide-4,2'-tricyclo[3.3.1.1^3,7]decane] yielded a Color density of 0.85 and a λ max of 550 nm. For the same compound, in series [2], the “Initial color, visually observed” value is “colorless” and the “Initial color, YI” value worked out at 2.15. The compound also yielded a T1/2 in series [3] of 100 h.

In series [1], `COc1ccc(C2=C3C(=O)N(C(=O)c4ccccc4)C(=O)C3C3(c4oc5ccccc5c42)C2CC4CC3CC(C)(C4)C2)cc1` (centres unmarked) [Compound 8, N-Benzoyl-3,4-dihydro-5'-methyl-1-(p-methoxyphenyl)spirobenzo[5,6-b:d]furandicarboxyimide-4,2-tricyclo[3.3.1.1^3,7]decane] yielded a Color density of 0.98 and a λ max of 541 nm. Besides, in series [2], the “Initial color, visually observed” value is on record as “colorless” and the “Initial color, YI” value was found to be 3.94. The T1/2 in series [3] came out at 110 h.

In series [1], `COC12CC3CC(C1)C1(c4c(c5ccccc5n4-c4ccccc4)C(C4CC4)=C4C(=O)N(C(Cl)(Cl)Cl)C(=O)C41)C(C3)C2` (centres unmarked) [Compound 9] gave a Color density of 1.02 and a λ max of 610 nm. Also, in series [2], the “Initial color, visually observed” value was “colorless” and the “Initial color, YI” value was determined as 3.85. In series [3], this compound yielded a T1/2 of 145 h.

In series [1], `O=C1C2=C(C3CC3)c3c(sc4c3CCCC4)C3(C4CC5CC(C4)CC3C5)C2C(=O)N1S(=O)(=O)c1ccccc1` (centres unmarked) [Compound 10] registered a Color density of 1.12 and a λ max of 620 nm. For the same compound, in series [2], the “Initial color, visually observed” value is “pale yellow” and the “Initial color, YI” value is given as 4.99. The same compound returned a T1/2 in series [3] of 140 h.

In series [1], `CC1=C2C(=O)N(C(=O)c3cccc(C#N)c3)C(=O)C2C2(c3c1c1c(n3C)CCCC1)C1CC3CC(F)(C1)CC2(F)C3` (centres unmarked) [Compound 11] registered a Color density of 0.88 and a λ max of 630 nm. In series [2], the “Initial color, visually observed” value is on record as “colorless” and the “Initial color, YI” value is recorded as 2.35. The compound also yielded a T1/2 in series [3] of 100 h.

In series [1], `CC12CCCC(CCC1)C21c2sc([N+](=O)[O-])cc2C(C2CC2)=C2C(=O)N(C(=O)c3c(F)c(F)c(F)c(F)c3F)C(=O)C21` (centres unmarked) [Compound 12] displayed a Color density of 1.02 and a λ max of 593 nm. In series [2], the “Initial color, visually observed” value is recorded as “colorless” and the “Initial color, YI” value is listed as 2.25. The same compound came in with a T1/2 in series [3] of 140 h.

In series [1], `Cn1c(Cl)cc2c1C1(C3CCCC1(Cl)CCC3)C1C(=O)N(C(F)(F)F)C(=O)C1=C2c1ccccc1` (centres unmarked) [Compound 14] returned a Color density of 0.75 and a λ max of 603 nm. For the same compound, in series [2], the “Initial color, visually observed” value was “pale yellow” and the “Initial color, YI” value is listed as 4.89. This compound also gave a T1/2 in series [3] of 100 h.

Consider `CCOC(=O)N1C(=O)C2=C(C)c3c(sc4ccccc34)C3(C4CCCC3(OC)CCC4)C2C1=O` (centres unmarked) [Compound 15], for which, in series [1], the Color density is given as 0.85 and the λ max was determined as 520 nm. In series [2], the “Initial color, visually observed” value is reported as “colorless” and the “Initial color, YI” value was 2.95. Moreover, the T1/2 in series [3] is 110 h.

In series [1], `CC(=O)N1C(=O)C2=C(C)c3c4c(n(-c5ccccc5)c3C3(C5CCCC3CCC5)C2C1=O)CCCC4` (centres unmarked) [Compound 16] showed a Color density of 1.05 and a λ max of 625 nm. In addition, in series [2], the “Initial color, visually observed” value is “colorless” and the “Initial color, YI” value is 3.56. The compound also registered a T1/2 in series [3] of 100 h.

Turning to `CCCCC12CCC(CC1)C21c2sc(C)c(CC)c2C(C2CC2)=C2C(=O)N(C(=O)c3cccc(C(F)(F)F)c3)C(=O)C21` (centres unmarked) [Compound 17], in series [1], the Color density turned out to be 1.10 and the λ max is 610 nm. Also, in series [2], the “Initial color, visually observed” value is “colorless” and the “Initial color, YI” value stood at 3.10. For the same compound, the T1/2 in series [3] is 140 h.

In the case of `N#CN1C(=O)C2=C(c3ccoc3)c3ccoc3C3(C4CCC3CC4)C2C1=O` (centres unmarked) [Compound 18], in series [1], the Color density was determined as 1.11 and the λ max was determined as 613 nm. Moreover, in series [2], the “Initial color, visually observed” value was “colorless” and the “Initial color, YI” value came to 2.95. In addition, the T1/2 in series [3] stood at 250 h.

In series [1], `CSc1cc2c(n1C)C1(C3C(=O)N(C(F)(F)F)C(=O)C3=C2C(C)C)C2(C)CCC1(C)CC2` (centres unmarked) [Compound 19] gave a Color density of 0.81 and a λ max of 603 nm. Further, in series [2], the “Initial color, visually observed” value is on record as “colorless” and the “Initial color, YI” value is recorded as 3.05. The compound further had a T1/2 in series [3] of 110 h.

In series [1], `CCOC12CCC(CC1)C21c2sc3ccccc3c2C(CC)=C2C(=O)N(S(=O)(=O)CC)C(=O)C21` (centres unmarked) [Compound 20] came in with a Color density of 0.95 and a λ max of 548 nm. In series [2], the “Initial color, visually observed” value was “pale yellow” and the “Initial color, YI” value is on record as 4.85. In series [3], the T1/2 came out at 100 h.
